Square brackets hold non-standard residues; d marks the D form. Peptide text beside a SMILES is read from it. Phe(4-Cl) = N[C@@H](Cc1ccc(Cl)cc1)C(=O)O; 2Nal = N[C@@H](Cc1ccc2ccccc2c1)C(=O)O; Cha = N[C@@H](CC1CCCCC1)C(=O)O
Test: Inhibition of human GST-tagged androgen receptor-ligand binding domain/cofactor interaction assessed as fluorescence polarization by competition assay

Compound | Ki [nM]
H-SSRWESWFAGEKESRG-OH | 82900
CC(C)C[C@H](NC(=O)[C@H](CO)NC(=O)[C@H](CCC(=O)O)NC(=O)[C@H](Cc1ccc2ccccc2c1)NC(=O)[C@H](CCCNC(=N)N)NC(=O)[C@H](CO)NC(=O)[C@@H](N)CO)C(=O)N[C@@H](Cc1c[nH]c2ccccc12)C(=O)N[C@@H](C)C(=O)NCC(=O)N[C@@H](CCC(=O)O)C(=O)N[C@@H](CCCCN)C(=O)N[C@@H](CCC(=O)O)C(=O)N[C@@H](CO)C(=O)N[C@@H](CCCNC(=N)N)C(=O)NCC(=O)O (H-SSR[2Nal]ESLWAGEKESRG-OH) | 3680
CC(C)C[C@H](NC(=O)[C@H](CCCNC(=N)N)NC(=O)[C@H](CO)NC(=O)[C@@H](N)CO)C(=O)N[C@@H](CCC(=O)O)C(=O)N[C@@H](CO)C(=O)N[C@@H](Cc1c[nH]c2ccccc12)C(=O)N[C@@H](Cc1ccc(Cl)cc1)C(=O)N[C@@H](C)C(=O)NCC(=O)N[C@@H](CCC(=O)O)C(=O)N[C@@H](CCCCN)C(=O)N[C@@H](CCC(=O)O)C(=O)N[C@@H](CO)C(=O)N[C@@H](CCCNC(=N)N)C(=O)NCC(=O)O (H-SSRLESW[Phe(4-Cl)]AGEKESRG-OH) | 166000

Now those with a lower Ki, led by results:

Ki [nM] | Compound
760 | H-SSRFESLFAGEKESRG-OH
470 | C[C@H](NC(=O)[C@H](Cc1c[nH]c2ccccc12)NC(=O)[C@H](CC1CCCCC1)NC(=O)[C@H](CO)NC(=O)[C@H](CCC(=O)O)NC(=O)[C@H](Cc1ccc2ccccc2c1)NC(=O)[C@H](CCCNC(=N)N)NC(=O)[C@H](CO)NC(=O)[C@@H](N)CO)C(=O)NCC(=O)N[C@@H](CCC(=O)O)C(=O)N[C@@H](CCCCN)C(=O)N[C@@H](CCC(=O)O)C(=O)N[C@@H](CO)C(=O)N[C@@H](CCCNC(=N)N)C(=O)NCC(=O)O (H-SSR[2Nal]ES[Cha]WAGEKESRG-OH)
940 | H-SSRFESWFAGEKESRG-OH
2440 | C[C@H](NC(=O)[C@H](CC1CCCCC1)NC(=O)[C@H](Cc1ccccc1)NC(=O)[C@H](CO)NC(=O)[C@H](CCC(=O)O)NC(=O)[C@H](Cc1c[nH]c2ccccc12)NC(=O)[C@H](CCCNC(=N)N)NC(=O)[C@H](CO)NC(=O)[C@@H](N)CO)C(=O)NCC(=O)N[C@@H](CCC(=O)O)C(=O)N[C@@H](CCCCN)C(=O)N[C@@H](CCC(=O)O)C(=O)N[C@@H](CO)C(=O)N[C@@H](CCCNC(=N)N)C(=O)NCC(=O)O (H-SSRWESF[Cha]AGEKESRG-OH)

Source: ChEMBL document CHEMBL1641568, “An on-bead assay for the identification of non-natural peptides targeting the androgen receptor-cofactor interaction” (Bioorg Med Chem, 2011)
